Twelve compounds from patent US20220241316A1, “25-HYDROXYCHOLESTEROL (25HC), CRYAB AGGREGATION INHIBITOR, IS A NOVEL SENOLYTIC” (Buck Institute for Research on Aging, priority 2019, published 2022) can be followed below.

The test system of one experiment is senescent cells. Put plainly: Evaluation of senolytic effects of 25HC, oxysterols and 25HC analogs in cell culture. Particulars: cell type not stated. It is filed as cell-based. The source says: Genetic knockdown of this gene kills senescent cells.
There are some commercially available analogs of 25HC such as oxysterols (Griffiths et al. (2019) Biochem Soc Trans., 47: 517-526).

The next experiment deals with T1, CRYAB protein (Homo sapiens, UniProt P02511).
T1 sequence (P02511 1-175): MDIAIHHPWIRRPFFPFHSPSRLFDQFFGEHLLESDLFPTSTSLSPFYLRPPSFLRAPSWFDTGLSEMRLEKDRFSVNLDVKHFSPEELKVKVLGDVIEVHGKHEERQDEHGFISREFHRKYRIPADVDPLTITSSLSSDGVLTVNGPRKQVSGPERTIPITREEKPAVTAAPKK
Put plainly: Inhibition of CRYAB protein aggregation. Particulars: stated with reference to Example 1; no aggregation test described.

For experiment [1], the system named is senescent human fetal lung fibroblast (IMR-90). Kind of experiment: Cell viability assay (Cell Counting Kit-8) on NS and SEN IMR-90 cells. It is filed as cell-based. Particulars: treatment started immediately after removing DMSO/250 nM Doxo; 72 hrs; normalized to DMSO. As for the experimental part:
Panel A) Timeline for DMSO/250 nM Doxo treatment and early-time point timeline for 24(S)-HC and 27HC treatment on NS and SEN cells. 24(S)HC and 27HC treatment were started immediately after removing DMSO/Doxo. Panel B) and C) Cell viability assay were performed on NS and SEN cells treated with different concentrations of 24(S)HC and 27HC, respectively. 24(S)HC and 27HC treatment were done for 72 hrs. The cell viability was analyzed by Cell Counting Kit-8 according to the manufactures' protocol using Spectra Max 190 (Molecular Devices). The value was normalized to that of DMSO. (Mean+/−SE, n=3, *p<0.05, **p<0.01 and ***p<0.001 by student's t-test).
Background: Tetrazolium assays rely on reduction of a dye to a coloured formazan, in cell work by metabolically active cells.

Experiment [2] deals with CRYAB mRNA. Put plainly: qPCR of CRYAB mRNA in Doxo treated mDFs. It counts as cell-based, mouse. Particulars: Doxo treated SEN mDFs day 1, 5, 14; normalized to β-actin, vs DMSO. As for the experimental part:
(§1) Real-time quantitative PCR (qPCR) was performed on RNA samples isolated from DMSO treated NS mDF cells or Doxo treated SEN mDF cells at day 1, 5, and 14 after Doxo treatment. The amount of mRNA was normalized to the level of β-actin (see, e.g., Demaria et al. (2017) Cancer Discovery, 2: 165-176; and references cited therein). Relative levels of CRYAB mRNA for DMSO and Doxo treated mDFs was measured. The average value of DMSO is expressed as 1. (Mean+/−SE, n=4, *p<0.05, ***p<0.001 by Dunnett's multiple comparisons test vs DMSO).
(In general: In qPCR the cycle at which signal appears reflects the starting amount.)

Experiment [3] deals with p16INK4a mRNA. Kind of experiment: qPCR of p16INK4a mRNA in Doxo treated FAPs. It counts as cell-based, mouse. Particulars: 250 nM Doxo for 24 hours; normalized to β-actin, vs DMSO. As for the experimental part: As shown, FAPs undergo senescence upon 250 nM of Doxo treatment for 24 hours (Day 0). The mRNA was extracted from DMSO treated NS or Doxo treated SEN FAPs at indicated time points and quantified by qPCR. The amount of mRNA was normalized to the level of β-actin. The graphs show the relative levels of p16INK4a mRNA for DMSO and Doxo treated samples. The average value of DMSO is expressed as 1 (Mean+/−SE, n=3, *p<0.05 by Dunnett's multiple comparisons test vs DMSO).

For experiment [4], the system named is p16INK4a mRNA. Kind of experiment: qPCR of p16INK4a mRNA in Doxo treated mDFs. It counts as cell-based, mouse. Particulars: 250 nM Doxo for 24 hours; day 1, 5, 14; normalized to β-actin, vs DMSO. The protocol:
as §1, with “As shown, mDFs undergo senescence upon 250 nM of Doxo treatment for 24 hours (Day 0). Real-time” for “Real-time”, “NS (Non-Senescent)” for “NS”, “SEN (Senescent)” for “SEN”, “p16INK4a” for “CRYAB”, “**p<0.01, ****p<0.0001” for “*p<0.05, ***p<0.001”

Experiment [5] relates to CRYAB mRNA. Kind of experiment: qPCR of CRYAB mRNA in Doxo treated FAPs. Particulars: 250 nM doxorubicin 24 hrs; normalized to β-actin, vs DMSO. It counts as cell-based, mouse. The protocol:
The cells were treated with 250 nM doxorubicin and incubated for 24 hrs (Day 0). The mRNA was extracted from DMSO treated NS or Doxo treated SEN FAPs at the indicated time points and quantified by qPCR. The amount of mRNA was normalized to the level of β-actin mRNA. The average value of DMSO is expressed as 1 (Mean+/−SE, n=3, **p<0.01 and ***p<0.001 by Dunnett's multiple comparisons test vs DMSO).

“Also recorded” adds a separate entry of the source.

On to `C[C@@H](CCCC(C)(O)c1ccccc1)C1CCC2C3CC=C4C[C@H](O)CC[C@@]4(C)C3CC[C@]21C` (relative stereo) [rel-(3R,10S,13S)-17-[(2S)-6-hydroxy-6-phenylheptan-2-yl]-10,13-dimethyl-2,3,4,7,8,9,10,11,12,13,14,15,16,17-tetradecahydro-1H-cyclopenta[a]phenanthren-3-ol], for which the Senolytic effect result in the experiment on senescent cells is reported as “novel senolytics”. At CRYAB protein, the “Inhibition of CRYAB protein aggregation (as asserted in the description)” value (“Inhibition of CRYAB protein aggregation” below) is “effective inhibitors of CRYAB protein aggregation”.
On the same counts, the results for `C[C@H](CCCC(C)(C)O)[C@H]1CC[C@H]2[C@@H]3[C@H](O)C=C4C[C@@H](O)CC[C@]4(C)[C@H]3CC[C@]12C` [7α,25-Dihydroxycholesterol] are “novel senolytics” and “effective inhibitors of CRYAB protein aggregation”.
On to `CC(C)CCC[C@@H](C)[C@H]1CC[C@H]2[C@@H]3[C@H](O)C=C4C[C@@H](O)CC[C@]4(C)[C@H]3CC[C@]12C` [7αHC, 7α-Hydroxycholesterol], for which, in the experiment on senescent cells, the Senolytic effect result was “novel senolytics”. The “Inhibition of CRYAB protein aggregation” value on CRYAB protein is “effective inhibitors of CRYAB protein aggregation”.
On the same counts, the results for `CC(C)CCC[C@@H](C)[C@H]1CC[C@H]2[C@@H]3[C@@H](O)C=C4C[C@@H](O)CC[C@]4(C)[C@H]3CC[C@]12C` [7βHC, 7β-Hydroxycholesterol] are “novel senolytics” and “effective inhibitors of CRYAB protein aggregation”.
On the same counts, the results for `CC(C)CC[C@@H](O)[C@@H](C)[C@H]1CC[C@H]2[C@@H]3CC=C4C[C@@H](O)CC[C@]4(C)[C@H]3CC[C@]12C` [22(R)HC, 22(R)-Hydroxycholesterol] are “novel senolytics” and “effective inhibitors of CRYAB protein aggregation”.
Take `CC(C)[C@@H](O)CC[C@@H](C)[C@H]1CC[C@H]2[C@@H]3CC=C4C[C@@H](O)CC[C@]4(C)[C@H]3CC[C@]12C` [24(S)HC, 24(S)-Hydroxycholesterol]: the Senolytic effect entry in the experiment on senescent cells is reported as “novel senolytics”. For the same compound, the “Cell viability of NS and SEN IMR-90 cells, early-time point” value in experiment [1] was “specifically kill senescent human fetal lung fibroblast; also recorded: specifically kill senescent IMR-90 cells”. Also, at CRYAB protein, the “Inhibition of CRYAB protein aggregation” value is “effective inhibitor of CRYAB protein aggregation”.
Regarding `CC(=O)CCC[C@@H](C)[C@H]1CC[C@H]2[C@@H]3CC=C4C[C@@H](O)CC[C@]4(C)[C@H]3CC[C@]12C` [27-Nor-25-ketocholesterol], in the experiment with senescent cells, the Senolytic effect entry is “novel senolytics”. The “Inhibition of CRYAB protein aggregation” value on CRYAB protein is “effective inhibitors of CRYAB protein aggregation”.
`C[C@@H](CO)CCC[C@@H](C)[C@H]1CC[C@H]2[C@@H]3CC=C4C[C@@H](O)CC[C@]4(C)[C@H]3CC[C@]12C` [27HC, 27-Hydroxycholesterol]: the Senolytic effect entry in the experiment with senescent cells is on record as “novel senolytics”. Further, the “Cell viability of NS and SEN IMR-90 cells, early-time point” value in experiment [1] is on record as “specifically kill senescent human fetal lung fibroblast; also recorded: specifically kill senescent IMR-90 cells”. Also, at CRYAB protein, the “Inhibition of CRYAB protein aggregation” value is recorded as “effective inhibitor of CRYAB protein aggregation”.
Regarding `CC(CCCN(C)C)C1CCC2C3CC=C4C[C@@H](O)CC[C@]4(C)C3CC[C@]12C` (stereo partly drawn) [(3S,10R,13R)-17-(5-(dimethylamino)pentan-2-yl)-10,13-dimethyl-2,3,4,7,8,9,10,11,12,13,14,15,16,17-tetradecahydro-1H-cyclopenta[a]phenanthren-3-ol], in the experiment on senescent cells, the Senolytic effect entry was “novel senolytics”. Also, the “Inhibition of CRYAB protein aggregation” value at CRYAB protein is on record as “effective inhibitors of CRYAB protein aggregation”.
The matching figures for `C[C@H](CCC(=O)O)[C@H]1CCC2[C@@H]3CC=C4C[C@H](O)CC[C@]4(C)C3CC[C@@]21C` (stereo partly drawn) [(3alpha,9xi,14xi)-3-hydroxychol-5-en-24-oic acid]: “novel senolytics” and “effective inhibitors of CRYAB protein aggregation”.
The matching figures for `C=C1CC[C@@H](O)CC1=C/C=C1\CCC[C@]2(C)[C@@H]([C@H](C)CCCC(C)(C)O)CC[C@@H]12` [Calcifediol 25-Hydroxyvitamin D3, reference compound]: “novel senolytics” and “effective inhibitors of CRYAB protein aggregation”.
As to `COc1cccc2c1C(=O)c1c(O)c3c(c(O)c1C2=O)C[C@@](O)(C(=O)CO)C[C@@H]3O[C@H]1C[C@H](N)[C@H](O)[C@H](C)O1` [Doxo, doxorubicin], the “Relative level of CRYAB mRNA in mDFs” value in the experiment on CRYAB mRNA [2] is “upregulated CRYAB”. In the experiment with p16INK4a mRNA [3], the “Relative level of p16INK4a mRNA in FAPs” value is given as “induced senescence”. For the same compound, the “Relative level of p16INK4a mRNA in mDFs” value with p16INK4a mRNA [4] is recorded as “induces senescence marker, p16INK4a”. Further, the “Relative level of CRYAB mRNA in FAPs” value in the experiment with CRYAB mRNA [5] is “significantly increased”.
